ChEMBL document CHEMBL4196039, “Pan-NS3 protease inhibitors of hepatitis C virus based on an R3-elongated pyrazinone scaffold” (Eur J Med Chem, 2018)
Non-standard residues stand in square brackets, D forms with d. Residues, ends and D or L forms follow the SMILES beside them. dGla = N[C@H](CC(C(=O)O)C(=O)O)C(=O)O; Cha = N[C@@H](CC1CCCCC1)C(=O)O

Experiments:
NS3 [1] = target: T1, NS3 (Hepatitis C virus, UniProt A3EZJ3); test: Inhibition of HCV genotype-3a full length NS3 protease preincubated for 10 mins followed by Ac-DED(Edans)EEAbuj-[COO]ASK(Dabcyl)-NH2 addition in presence of co-factor 2K-NS4A by fluorescence assay; parameters: species or system Hepatitis C virus subtype 3a
T1 sequence (A3EZJ3 whole entry): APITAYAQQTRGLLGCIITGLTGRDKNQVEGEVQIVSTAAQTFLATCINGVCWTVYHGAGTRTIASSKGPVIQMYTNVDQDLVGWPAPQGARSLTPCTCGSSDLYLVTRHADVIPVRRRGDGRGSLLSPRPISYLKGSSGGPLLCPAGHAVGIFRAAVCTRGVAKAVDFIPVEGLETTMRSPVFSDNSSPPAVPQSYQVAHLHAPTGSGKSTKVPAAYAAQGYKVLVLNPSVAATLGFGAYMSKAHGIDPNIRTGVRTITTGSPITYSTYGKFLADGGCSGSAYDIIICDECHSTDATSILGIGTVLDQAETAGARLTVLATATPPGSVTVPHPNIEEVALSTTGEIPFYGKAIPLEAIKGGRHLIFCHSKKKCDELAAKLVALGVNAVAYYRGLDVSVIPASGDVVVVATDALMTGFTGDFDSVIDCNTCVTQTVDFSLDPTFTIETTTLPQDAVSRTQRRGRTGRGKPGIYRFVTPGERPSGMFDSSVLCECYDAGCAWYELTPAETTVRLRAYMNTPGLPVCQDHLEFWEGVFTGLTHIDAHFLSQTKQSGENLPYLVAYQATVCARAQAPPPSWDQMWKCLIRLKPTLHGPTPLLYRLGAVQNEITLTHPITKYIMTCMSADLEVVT

NS3 [2] = target: T1, NS3; test: Inhibition of HCV genotype-1a full length NS3 protease preincubated for 10 mins followed by Ac-DED(Edans)EEAbuj-[COO]ASK(Dabcyl)-NH2 addition in presence of co-factor 2K-NS4A by fluorescence assay; parameters: species or system Hepatitis C virus subtype 1a
NS3 [3] = target: NS3 (Hepatitis C virus, UniProt A3EZJ3, R155K); test: Inhibition of HCV genotype-1a full length NS3 protease R155K mutant preincubated for 10 mins followed by Ac-DED(Edans)EEAbuj-[COO]ASK(Dabcyl)-NH2 addition in presence of co-factor 2K-NS4A by fluorescence assay; parameters: species or system Hepatitis C virus subtype 1a
NS3 (Hepatitis C virus, UniProt A3EZJ3, R155K), sequence (A3EZJ3 entry or part of it R155K): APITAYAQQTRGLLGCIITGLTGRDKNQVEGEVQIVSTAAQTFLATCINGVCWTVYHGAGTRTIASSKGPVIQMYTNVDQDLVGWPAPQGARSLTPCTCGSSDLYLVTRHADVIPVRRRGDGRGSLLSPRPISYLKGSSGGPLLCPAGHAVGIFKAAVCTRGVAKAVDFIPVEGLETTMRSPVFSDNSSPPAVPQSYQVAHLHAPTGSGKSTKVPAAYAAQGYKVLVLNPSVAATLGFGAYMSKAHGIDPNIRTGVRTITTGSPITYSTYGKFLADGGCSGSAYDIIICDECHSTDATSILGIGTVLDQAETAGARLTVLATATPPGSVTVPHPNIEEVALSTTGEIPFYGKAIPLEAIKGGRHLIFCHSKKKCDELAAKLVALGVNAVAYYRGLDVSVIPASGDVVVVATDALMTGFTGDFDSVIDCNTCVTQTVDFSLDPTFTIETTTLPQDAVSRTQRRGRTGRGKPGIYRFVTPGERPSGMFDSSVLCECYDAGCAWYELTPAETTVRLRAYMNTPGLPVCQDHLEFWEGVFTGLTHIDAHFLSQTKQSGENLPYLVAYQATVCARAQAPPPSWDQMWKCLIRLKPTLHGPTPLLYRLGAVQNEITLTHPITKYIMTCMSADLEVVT

Hepatitis C virus = test: Antiviral activity against HCV genotype 1b infected in human HuH7 cells; assay type: functional, organism-based, Hepacivirus hominis; settings: Huh-7
[4] = Cytotoxicity against human HuH7 cell; assay type: cell-based, Huh-7; settings: HuH7 cells
NS3 [5] = target: T1, NS3; test: Inhibition of HCV genotype-1a NS3 protease; parameters: species or system Hepatitis C virus subtype 1a

| Compound | Ki (NS3 [1]) [nM] | Ki (NS3 [2]) [nM] | also measured |
| --- | --- | --- | --- |
| CC(C)(C)[C@@H](CNS(=O)(=O)c1cccnc1)NC(=O)Nc1nc(Cl)c(Cc2ccccc2)n(CC(=O)Nc2cc(F)ccc2C(=O)NS(=O)(=O)c2ccc(C(F)(F)F)cc2)c1=O |  | 190 | Ki (NS3 [3]): 40 nM |
| CC1(C)CC(=O)N(C[C@@H](NC(=O)Nc2nc(Cl)c(CCC3CCCCC3)n(CC(=O)Nc3cc(F)ccc3C(=O)NS(=O)(=O)c3ccc(C(F)(F)F)cc3)c2=O)C(C)(C)C)C(=O)C1 | 5.4 | 30 | Ki (NS3 [3]): 2 nM; EC50 (Hepatitis C virus): 7100 nM; CC50 [4]: 26000 nM |
| O=C(Cn1c(Cc2ccccc2)c(Cl)nc(NNC(=O)c2ccccc2)c1=O)Nc1ccccc1C(=O)NS(=O)(=O)c1ccc(C(F)(F)F)cc1 |  | 1650 |  |
| COc1ccc2c(O[C@@H]3C[C@H]4C(=O)N[C@]5(C(=O)O)C[C@H]5/C=C\CCCCC[C@H](NC(=O)OC5CCCC5)C(=O)N4C3)cc(-c3csc(NC(C)C)n3)nc2c1 [CILUPREVIR] | 20 |  | Ki (NS3 [5]): 0.089 nM; CC50 [4]: > 100 nM |
| CC(C)(C)N1CCN(c2nc(Cl)c(Cc3ccccc3)n(CC(=O)Nc3ccccc3C(=O)NS(=O)(=O)c3ccc(C(F)(F)F)cc3)c2=O)C1=O |  | 380 |  |
| CC1(C)CC(=O)N(C[C@@H](NC(=O)Nc2nc(Cl)c(Cc3ccccc3)n(CC(=O)Nc3cc(F)ccc3C(=O)NS(=O)(=O)c3ccc(C(F)(F)F)cc3)c2=O)C(C)(C)C)C(=O)C1 | 135 | 160 | Ki (NS3 [3]): 30 nM |
| CC[C@H](C)[C@H](NC(=O)[C@H](CC(C)C)NC(=O)[C@@H](CC(C(=O)O)C(=O)O)NC(=O)[C@H](CC(=O)O)NC(C)=O)C(=O)N[C@@H](CC1CCCCC1)C(=O)N[C@@H](CS)C(=O)O (Ac-D[dGla]LI[Cha]C-OH) |  | 9 |  |

Continued, in another order:

| Ki (NS3 [1]) [nM] | Compound | Ki (NS3 [2]) [nM] | also measured |
| --- | --- | --- | --- |
| 87 | CC(C)(C)NC(=O)Nc1nc(Cl)c(CCC2CCCCC2)n(CC(=O)Nc2cc(-c3cncnc3)ccc2C(=O)NS(=O)(=O)c2ccc(C(F)(F)F)cc2)c1=O |  |  |
| 68 | CC(C)(C)NC(=O)Nc1nc(Cl)c(CCC2CCCCC2)n(CC(=O)NC2(C(=O)NS(=O)(=O)c3ccc(C(F)(F)F)cc3)CC(OCc3ccccc3)C2)c1=O (stereo not given) |  |  |
| 170 | CC(C)(C)NC(=O)Nc1nc(Cl)c(Cc2cccc3ccccc23)n(CC(=O)Nc2ccccc2S(=O)(=O)NC(=O)c2ccc(C(F)(F)F)cc2)c1=O |  |  |
| 70 | CC(C)(C)NC(=O)Nc1nc(Cl)c(CCC2CCCCC2)n(CC(=O)Nc2ccccc2C(=O)O)c1=O |  |  |
